The results in this text go back to patent US12421211B2, “Heterocyclic compounds” (Hoffmann-La Roche Inc., priority 2021, dated 2025).

Counter-ions that a name gives are not always drawn.

One assay has as its system Acinetobacter baumannii ATCC17961. The assay can be described thus: Antimicrobial susceptibility testing: 90% growth inhibitory concentration (IC90) determination. The format is cell-based. Particulars: Acinetobacter baumannii, ATCC17961, 16 h, 90% growth inhibitory concentration, Acinetobacter baumannii ATCC17961, Iso-Sensitest broth, OD 600 nm over 16 h; read-out: ATCC 17961 IC90. Here is the method:
Assay Procedures Antimicrobial Susceptibility Testing: 90% Growth Inhibitory Concentration (IC90) Determination
The in vitro antimicrobial activity of the compounds was determined according to the following procedure:
The assay used a 10-points Iso-Sensitest broth medium to measure quantitatively the in vitro activity of the compounds against Acinetobacter baumannii ATCC17961.
Stock compounds in DMSO were serially twofold diluted (e.g. range from 50 to 0.097 μM final concentration) in 384 wells microtiter plates and inoculated with 49 μl the bacterial suspension in Iso-Sensitest medium to have a final cell concentration of ˜5×10^(5) CFU/ml in a final volume/well of 50 ul/well. Microtiter plates were incubated at 35±2° C.
Bacterial cell growth was determined with the measurement of optical density at λ=600 nm each 20 minutes over a time course of 16h. Growth inhibition was calculated during the logarithmic growth of the bacterial cells with determination of the concentration inhibiting 50% (IC50) and 90% (IC90) of the growth.
Table 1 provides the 90% growth inhibitory concentrations (IC90) in micromoles per liter of the compounds of present invention obtained against the strain Acinetobacter baumannii ATCC17961.
`COCCn1ncc(-c2ccc(-c3cnc(C(=O)Nc4ccc(C(=O)N5CCN(C(=O)CCC[N+](C)(CCCN)CC(=O)O)CC5)c(Cl)c4)n3C)c(C)c2F)c1C` (centres unmarked) [Example O5, 3-aminopropyl-(carboxymethyl)-[4-[4-[2-chloro-4-[[5-[3-fluoro-4-[1-(2-methoxyethyl)-5-methyl-pyrazol-4-yl]-2-methyl-phenyl]-1-methyl-imidazole-2-carbonyl]amino]benzoyl]piperazino]-4-keto-butyl]-methyl-ammonium. 1:12,2,2-trifluoroacetic acid; 2,2,2-trifluoroacetate]: the IC90 (as a rule, the concentration needed for an effect of 90%) worked out at 200 nM.

As for `COCCn1cc(-c2ccc(-c3cnc(C(=O)Nc4ccc(C(=O)N5CCN(C(=O)C6CC[N+](C)(C)CC6O)CC5)c(Cl)c4)n3C)c(F)c2F)c(C)n1` (centres unmarked) [Example D2, N-[3-chloro-4-[4-(3-hydroxy-1,1-dimethyl-piperidin-1-ium-4-carbonyl)piperazine-1-carbonyl]phenyl]-5-[2,3-difluoro-4-[1-(2-methoxyethyl)-3-methyl-pyrazol-4-yl]phenyl]-1-methyl-imidazole-2-carboxamide; formate], the IC90 came out at 210 nM.

As to `COCCn1ncc(-c2cc(C)c(-c3cnc(C(=O)Nc4ccc(C(=O)N5CCN(C(=O)C6CC[N+](CC(=O)O)(CC7CNC7)CC6)CC5)c(Cl)c4)n3C)cc2Cl)c1C` (centres unmarked) [Example B40, 2-[1-(azetidin-3-ylmethyl)-4-[4-[2-chloro-4-[[5-[5-chloro-4-[1-(2-methoxyethyl)-5-methyl-pyrazol-4-yl]-2-methyl-phenyl]-1-methyl-imidazole-2-carbonyl]amino]benzoyl]piperazine-1-carbonyl]piperidin-1-ium-1-yl]acetic acid; formate], the 90% effect concentration (IC90) turned out to be 1800 nM.

For `Cc1nn(CC(=O)Nc2ccccn2)cc1-c1ccc(-c2cnc(C(=O)Nc3ccc(C(=O)N4CCN(C(=O)C5CC[N+](C)(C)CC5)CC4)c(Cl)c3)n2C)c(F)c1F` [Example G14, N-[3-chloro-4-[4-(1,1-dimethylpiperidin-1-ium-4-carbonyl)piperazine-1-carbonyl]phenyl]-5-[2,3-difluoro-4-[3-methyl-1-[2-oxo-2-(2-pyridylamino)ethyl]pyrazol-4-yl]phenyl]-1-methyl-imidazole-2-carboxamide; formate], the IC90 came out at 89 nM.

As for `COCCn1ncc(-c2ccc(-c3cnc(C(=O)Nc4ccc(C(=O)N5CCN(C(=O)C6(OC)CCNCC6)CC5)c(Cl)c4)n3C)c(F)c2F)c1C` [Example D44, N-[3-chloro-4-[4-(4-methoxypiperidine-4-carbonyl)piperazine-1-carbonyl]phenyl]-5-[2,3-difluoro-4-[1-(2-methoxyethyl)-5-methyl-pyrazol-4-yl]phenyl]-1-methyl-imidazole-2-carboxamide], the IC90 was 160 nM.

Turning to `COCCn1ncc(-c2ccc(-c3cnc(C(=O)Nc4ccc(C(=O)N5CCN(C(=O)C6(O)CCNCC6)CC5)c(Cl)c4)n3C)c(F)c2F)c1C` [Example D24, N-[3-chloro-4-[4-(4-hydroxypiperidine-4-carbonyl)piperazine-1-carbonyl]phenyl]-5-[2,3-difluoro-4-[1-(2-methoxyethyl)-5-methyl-pyrazol-4-yl]phenyl]-1-methyl-imidazole-2-carboxamide; formic acid], the IC90 was 73 nM.

In the case of `COCCn1ncc(-c2ccc(-c3cnc(C(=O)Nc4ccc(C(=O)N5CCN(C(=O)[C@@H]6CCC(=O)N6)CC5)c(Cl)c4)n3C)c(F)c2F)c1C` [Example D26, N-[3-chloro-4-[4-[(2S)-5-oxopyrrolidine-2-carbonyl]piperazine-1-carbonyl]phenyl]-5-[2,3-difluoro-4-[1-(2-methoxyethyl)-5-methyl-pyrazol-4-yl]phenyl]-1-methyl-imidazole-2-carboxamide; 2,2,2-trifluoroacetic acid], the IC90 is 190 nM.

Turning to `COCCn1ncc(-c2ccc(-c3cnc(C(=O)Nc4ccc(C(=O)N5CCC(C(=O)N6CC[N+](CC(=O)O)(CC7CNC7)CC6)CC5)c(Cl)c4)n3C)c(F)c2F)c1C` [Example B22, 2-[1-(azetidin-3-ylmethyl)-4-[1-[2-chloro-4-[[5-[2,3-difluoro-4-[1-(2-methoxyethyl)-5-methyl-pyrazol-4-yl]phenyl]-1-methyl-imidazole-2-carbonyl]amino]benzoyl]piperidine-4-carbonyl]piperazin-1-ium-1-yl]acetic acid; formate], the concentration for an effect of 90% (IC90) is 330 nM.

Take `COCCn1ncc(-c2ccc(-c3cnc(C(=O)Nc4ccc(C(=O)N5CCN(C(=O)CN6CCCC6)CC5)c(Cl)c4)n3C)c(F)c2F)c1C` [Example D28, N-[3-chloro-4-[4-(2-pyrrolidin-1-ylacetyl)piperazine-1-carbonyl]phenyl]-5-[2,3-difluoro-4-[1-(2-methoxyethyl)-5-methyl-pyrazol-4-yl]phenyl]-1-methyl-imidazole-2-carboxamide; 2,2,2-trifluoroacetic acid]: the 90% effect concentration (IC90) is 30 nM.

On to `Cn1c(-c2ccc(-c3cn(CCS(C)(=O)=O)nc3C(F)(F)F)c(F)c2F)cnc1C(=O)Nc1ccc(C(=O)N2CCN(C(=O)C3CC[N+](C)(C)CC3)CC2)c(Cl)c1` [Example F32, N-[3-chloro-4-[4-(1,1-dimethylpiperidin-1-ium-4-carbonyl)piperazine-1-carbonyl]phenyl]-5-[2,3-difluoro-4-[1-(2-methylsulfonylethyl)-3-(trifluoro-methyl)pyrazol-4-yl]phenyl]-1-methyl-imidazole-2-carboxamide; formate], for which the IC90 was 580 nM.

For `Cn1c(-c2ccc(-c3ccc(NCCC(N)=O)cn3)c(F)c2F)cnc1C(=O)Nc1ccc(C(=O)N2CCN(C(=O)C3CC[N+](C)(C)CC3)CC2)c(Cl)c1` [Example F63, 5-[4-[5-[(3-amino-3-oxo-propyl)amino]-2-pyridyl]-2,3-difluoro-phenyl]-N-[3-chloro-4-[4-(1,1-dimethylpiperidin-1-ium-4-carbonyl)piperazine-1-carbonyl]phenyl]-1-methyl-imidazole-2-carboxamide; formate], the concentration for an effect of 90% (IC90) stood at 560 nM.

Turning to `Cc1nn(CC(=O)Nc2cn[nH]c2)cc1-c1ccc(-c2cnc(C(=O)Nc3ccc(C(=O)N4CCN(C(=O)C5CC[N+](C)(C)CC5)CC4)c(Cl)c3)n2C)c(F)c1F` [Example G11, N-[3-chloro-4-[4-(1,1-dimethylpiperidin-1-ium-4-carbonyl)piperazine-1-carbonyl]phenyl]-5-[2,3-difluoro-4-[3-methyl-1-[2-oxo-2-(1H-pyrazol-4-ylamino)ethyl]pyrazol-4-yl]phenyl]-1-methyl-imidazole-2-carboxamide; formate], the IC90 was found to be 710 nM.

As to `COCCn1cc(-c2ccc(-c3cnc(C(=O)Nc4ccc(C(=O)N5CCN(C(=O)C6CC[N+](C)(CC(N)=O)CC6)CC5)c(Cl)c4)n3C)c(F)c2F)c(C)n1` (centres unmarked) [Example B2, N-[4-[4-[1-(2-amino-2-oxo-ethyl)-1-methyl-piperidin-1-ium-4-carbonyl]piperazine-1-carbonyl]-3-chloro-phenyl]-5-[2,3-difluoro-4-[1-(2-methoxyethyl)-3-methyl-pyrazol-4-yl]phenyl]-1-methyl-imidazole-2-carboxamide; formate], the IC90 came out at 120 nM.

As to `COCCn1ncc(-c2ccc(-c3cnc(C(=O)Nc4ccc(C(=O)N5CCN(C(=O)[C@@H]6C[C@@H](O)C[N+]6(C)C)CC5)c(Cl)c4)n3C)c(F)c2F)c1C(F)F` [Example F12, N-[3-chloro-4-[4-[(2S,4R)-4-hydroxy-1,1-dimethyl-pyrrolidin-1-ium-2-carbonyl]piperazine-1-carbonyl]phenyl]-5-[4-[5-(difluoromethyl)-1-(2-methoxyethyl)pyrazol-4-yl]-2,3-difluoro-phenyl]-1-methyl-imidazole-2-carboxamide; formate], the IC90 amounted to 170 nM.

As for `COCCn1ncc(-c2ccc(-c3cnc(C(=O)Nc4ccc(C(=O)N5CCN(C(=O)C6CCNCC6)CC5)c(Cl)c4)n3C)c(F)c2C)c1C` [Example E3, N-[3-chloro-4-[4-(piperidine-4-carbonyl)piperazine-1-carbonyl]phenyl]-5-[2-fluoro-4-[1-(2-methoxyethyl)-5-methyl-pyrazol-4-yl]-3-methyl-phenyl]-1-methyl-imidazole-2-carboxamide; formic acid], the IC90 turned out to be 490 nM.

The assay is the same for the next values; noted with them: Acinetobacter baumannii, ATCC17961, 16 h, read-out: ATCC 17961 IC90.
Turning to `COCCn1nc(C)c(-c2ccc(-c3cnc(C(=O)Nc4ccc(C(=O)N5CCN(C(=O)C6CC[N+](C)(CCO)CC6)CC5)c(Cl)c4)n3C)c(F)c2F)c1C` (centres unmarked) [Example B8, N-[3-chloro-4-[4-[1-(2-hydroxyethyl)-1-methyl-piperidin-1-ium-4-carbonyl]piperazine-1-carbonyl]phenyl]-5-[2,3-difluoro-4-[1-(2-methoxyethyl)-3,5-dimethyl-pyrazol-4-yl]phenyl]-1-methyl-imidazole-2-carboxamide; formate], the IC90 came out at 280 nM.

Take `COCCn1ncc(-c2ccc(-c3cnc(C(=O)Nc4ccc(C(=O)N5CCN(C(=O)C6CC[N+](C)(CC(F)F)CC6)CC5)c(Cl)c4)n3C)c(F)c2F)c1C` (centres unmarked) [Example B32, N-[3-chloro-4-[4-[1-(2,2-difluoroethyl)-1-methyl-piperidin-1-ium-4-carbonyl]piperazine-1-carbonyl]phenyl]-5-[2,3-difluoro-4-[1-(2-methoxyethyl)-5-methyl-pyrazol-4-yl]phenyl]-1-methyl-imidazole-2-carboxamide; 2,2,2-trifluoroacetate]: the IC90 was found to be 58 nM.
